Molecules are shown by their SMILES. In brackets after ≈: the same amount, converted by molar mass. Where two headings read alike, the source gives them in different places. Some results are limits rather than exact numbers.

One series has as its system HBV. The series can be described thus: HBV DNA Quantification Assay. Format: cell-based. The conditions noted are these: Hepatitis B virus. The procedure: A HepG2 cell line overexpressing the HBV virus attachment receptor sodium-taurocholate cotransporting polypeptide (NTCP) was grown to confluency in DMEM growth medium, Dulbecco's Modified Eagle Medium without sodium pyruvate (Life Technologies, Rockville, Md.) supplemented with 10% FBS (Thermo Scientific, Waltham, Md.), 1% penicillin/streptomycin (Life Technologies, Rockville, Md.) and 2 mM L-glutamine (Life Technologies, Rockville, Md.) in T175 flasks. Cells were infected with HBV AD38 viral particles (Texcell, Frederick, USA) at 4000 genome equivalents per cell. After allowing viral infection to take place for 4 days, the infected cells were harvested from the flasks by trypsinization, washed twice with OptiMEM (Life Technologies, Rockville, Md.) and re-suspended in DMEM containing 2% FBS and 1% DMSO at a density of 0.25E6 cells/ml. Infected cells were seeded on 384 well collagen coated plates (Greiner, Austria) at a density of 20,000 cells/well containing serially diluted compounds of the present disclosure or DMSO (0.5%) in a final volume of 80 μl. The assay plates were incubated for a period of 5 days and the antiviral activity of the test compounds were assayed by detecting the presence of HBV DNA in the culture supernatant using the QuantiGene™ 2.0 nucleic acid quantification kit (Affymetrix, Santa Clara, Calif.).
The culture supernatant was harvested and treated with lysis buffer containing Proteinase K (Affymetrix, Santa Clara, Calif.). The supernatant was incubated with HBV viral DNA specific probes (Affymetrix, Santa Clara, Calif.) for 30 minutes at 55° C. This was followed by addition of 0.2M NaOH for 30 minutes at room temperature to denature the DNA, followed by addition of Neutralization buffer (Affymetrix, Santa Clara, Calif.). The resulting lysed and neutralized supernatant was then added to QuantiGene™ 2.0 384 well plates coated with capture oligonucleotides and incubated overnight at 55° C. The HBV specific probe set consists of Capture Extender oligonucleotides (CE's) and blocking probes. Following the overnight incubation, the wells were incubated for one hour sequentially with a Pre-Amplifier, Amplifier and Labeled probes conjugated to alkaline phosphatase with a wash step between incubations. After the final wash step, the alkaline phosphatase substrate (Luminol APS5) was added and the resulting luminescence signal was read in an EnVision Multilabel Plate Reader (PerkinElmer, Santa Clara, Calif.). The EC50 values were calculated from the fit of the dose-response curves to a four-parameter equation. All EC50 values represent geometric mean values of a minimum of four determinations.

A short description of a further series: Kinetic Solubility. Format: physicochemical. The conditions noted are these: kinetic from dmso stock, 0.2 to 100 μM, BD Gentest Solubility Scanner. The procedure:
The 10 mM DMSO stock solution of the test compound is serially diluted into a 96-well “DMSO stock dilution plate”. Then Pipette 2 μL from the DMSO stock dilution plate into the “Sample plate” and dilute with 198 µL of the assay media to generate the final concentrations of the test compound ranging from 0.2 to 100 μM. The “Sample plate” is run on a BD Gentest Solubility Scanner.

Where [1] appears, read: 120 h, HepG2 cell line overexpressing NTCP infected with HBV AD38 viral particles, HBV DNA in culture supernatant after 5 days, geometric mean of a minimum of four determinations, read-out: EC50.
Setting [2] is: aqueous buffer, pH = 7, read-out: Kinetic Solubility at pH = 7.
The mark [3] stands for this setting: simulated gastric fluid, pH = 1, read-out: Kinetic Solubility at pH = 1.
The mark [4] stands for this setting: assay media at pH 1 (composition not named), simulated gastric fluid, pH = 1, read-out: Kinetic Solubility at pH = 1.
Setting [5] is: assay media at pH 7 (composition not named), aqueous buffer, pH = 7, read-out: Kinetic Solubility at pH = 7.

Broadly, the EC50 is the concentration giving half of the maximal effect. For orientation: kinetic solubility means solubility judged after dilution from a stock solution rather than from solid. As to `Cc1c(C(=O)Nc2cc(F)c(F)c(F)c2)c2n(c1C(=O)C(=O)NC1(c3nncs3)CC1)CCC2` [Example 29, 5-(2-((1-(1,3,4-thiadiazol-2-yl)cyclopropyl)amino)-2-oxoacetyl)-6-methyl-N-(3,4,5-trifluorophenyl)-2,3-dihydro-1H-pyrrolizine-7-carboxamide], the EC50 in the series on HBV (setting [1]) stood at 14.3 nM. Also, the values for the solubility (kinetic) in “Kinetic Solubility” (setting [2]) and in “Kinetic Solubility” (setting [3]) were 4.5 µM (≈ 2.2 µg/mL) and 88.7 µM (≈ 43.4 µg/mL), respectively.

On to `Cc1c(C(=O)Nc2ccc(F)cc2)c2n(c1C(=O)C(=O)NC1(c3nncs3)CC1)CCC2` [Example 30, 5-(2-((1-(1,3,4-thiadiazol-2-yl)cyclopropyl)amino)-2-oxoacetyl)-N-(4-fluorophenyl)-6-methyl-2,3-dihydro-1H-pyrrolizine-7-carboxamide], for which the EC50 in the series with HBV (setting [1]) came out at 30.6 nM. Also, the solubility (kinetic) was 13 µM (≈ 5.9 µg/mL) in “Kinetic Solubility” (setting [2]) and more than 100 µM in “Kinetic Solubility” (setting [3]).

For `Cc1c(C(=O)Nc2ccc(F)c(C(F)F)c2)c2n(c1C(=O)C(=O)NC1(c3nncs3)CC1)CCC2` [Example 31], the EC50 in the series with HBV (setting [1]) stood at 16.5 nM. The kinetic solubility was 6.3 µM (≈ 3.17 µg/mL) in the series “Kinetic Solubility” (setting [2]) and 23.1 µM (≈ 11.6 µg/mL) in the series “Kinetic Solubility” (setting [3]).

Regarding `Cc1c(C(=O)Nc2ccc(F)c(C(F)F)c2)c2n(c1C(=O)C(=O)NC1(C(N)=O)CC(F)(F)C1)CCC2` [Example 32, 5-(2-((1-carbamoyl-3,3-difluorocyclobutyl)amino)-2-oxoacetyl)-N-(3-(difluoromethyl)-4-fluorophenyl)-6-methyl-2-dihydro-1H-pyrrolizine-7-carboxamide], the EC50 in the series on HBV (setting [1]) turned out to be 24.2 nM. Moreover, the solubility (kinetic) in the series “Kinetic Solubility” (setting [2]) was 89.5 µM (≈ 45.9 µg/mL); in “Kinetic Solubility” (setting [3]), 93.1 µM (≈ 47.7 µg/mL).

`CNC(=O)C1(NC(=O)C(=O)c2c(C)c(C(=O)Nc3ccc(F)c(F)c3)c3n2[C@@H]2C[C@@H]2C3)CC(F)(F)C1` [Example 33]: the EC50 in the series on HBV (setting [1]) was found to be 93.6 nM. For the same molecule, the values for the kinetic solubility in the series “Kinetic Solubility” (setting [2]) and in “Kinetic Solubility” (setting [3]) were 92.3 µM (≈ 46.7 µg/mL) and 92.1 µM (≈ 46.6 µg/mL), respectively.

`Cc1c(C(=O)Nc2ccc(F)c(F)c2)c2n(c1C(=O)C(=O)NC1(c3cnn[nH]3)CC(F)(F)C1)[C@@H]1C[C@@H]1C2` [Example 34, (1aR,6aR)-3-(2-((3,3-difluoro-1-(1H-1,2,3-triazol-5-yl)cyclobutyl)amino)-2-oxoacetyl)-N-(3,4-difluorophenyl)-4-methyl-1,1a,6,6a-tetrahydrocyclopropa[a]pyrrolizine-5-carboxamide]: the EC50 with HBV (setting [1]) is 14.4 nM. Further, the values for the kinetic solubility in the series “Kinetic Solubility” (setting [4]) and in the series “Kinetic Solubility” (setting [5]) were 51.7 µM (≈ 26.7 µg/mL) and 52.3 µM (≈ 27 µg/mL), respectively.

As to `CNC(=O)C1(NC(=O)C(=O)c2c(C)c(C(=O)Nc3ccc(F)c(Cl)c3)c3n2CCC3)CC(F)(F)C1` [Example 35], in the series on HBV (setting [1]), the EC50 was 14.2 nM. Further, the solubility (kinetic) in “Kinetic Solubility” (setting [2]) was 3.4 µM (≈ 1.74 µg/mL); in “Kinetic Solubility” (setting [3]), 9.1 µM (≈ 4.65 µg/mL).

With `Cc1c(C(=O)Nc2ccc(F)c(F)c2)c2n(c1C(=O)C(=O)NC1(c3c[nH]nn3)COC1)CCC2` [Example 36, 5-(2-((3-(1H-1,2,3-triazol-4-v)oxetan-3-yl)amino)-2-oxoacetyl)-N-(3,4-difluorophenyl)-6-methyl-2,3-dihydro-1H-pyrrolizine-7-carboxamide], in the series on HBV (HepG2, 120 h), a half-maximal response (EC50) required 21.4 nM. The solubility (kinetic) in the series “Kinetic Solubility” (setting [4]) was 63 µM (≈ 29.6 µg/mL); in “Kinetic Solubility” (setting [5]) it was 59.9 µM (≈ 28.2 µg/mL).

With `Cc1c(C(=O)Nc2ccc(F)c(C(F)F)c2)c2n(c1C(=O)C(=O)NC1(c3c[nH]nn3)CC(F)(F)C1)CCC2` [Example 37, 5-(2-((3,3-Difluoro-1-(1H-1,2,3-triazol-4-yl)cyclobutyl)amino)-2-oxoacetyl)-N-(3-(difluoromethyl)-4-fluorophenyl)-6-methyl-2,3-dihydro-1H-pyrrolizine-7-carboxamide], the EC50 in the series with HBV (setting [1]) is 3.6 nM. For the same molecule, the kinetic solubility in the series “Kinetic Solubility” (setting [2]) was 5.2 µM (≈ 2.79 µg/mL); in “Kinetic Solubility” (setting [3]), 7.1 µM (≈ 3.81 µg/mL).

Consider `CNC(=O)C1(NC(=O)C(=O)c2c(C)c(C(=O)Nc3ccc(F)c(F)c3)c3n2CCC3)COC1` [Example 38, N-(3,4-difluorophenyl)-6-methyl-5-(2-((3-(methylcarbamoyl)oxetan-3-yl)amino)-2-oxoacetyl)-2,3-dihydro-1H-pyrrolizine-7-carboxamide], for which the EC50 in the series with HBV (setting [1]) was 87.2 nM. The results for the solubility (kinetic) in the series “Kinetic Solubility” (setting [2]) and in “Kinetic Solubility” (setting [3]) were 86.7 µM (≈ 39.9 µg/mL) and 88.7 µM (≈ 40.8 µg/mL), respectively.

For the molecule `Cc1c(C(=O)Nc2ccc(F)c(F)c2)c2n(c1C(=O)C(=O)NC1(c3c[nH]nn3)CC(F)(F)C1)CCC2` [Example 39], the EC50 in the series with HBV (setting [1]) is 2.9 nM. Further, the results for the kinetic solubility in the series “Kinetic Solubility” (setting [2]) and in the series “Kinetic Solubility” (setting [3]) were 66.8 µM (≈ 33.7 µg/mL) and 66 µM (≈ 33.3 µg/mL), respectively.

Take `Cc1c(C(=O)Nc2ccc(F)c(F)c2)c2n(c1C(=O)C(=O)NC1(c3c[nH]nn3)CC1)CCC2` [Example 40, 5-(2-((1-(1H-1,2,3-triazol-4-yl)cyclopropyl)amino)-2-oxoacetyl)-N-(3,4-difluorophenyl)-6-methyl-2,3-dihydro-1H-pyrrolizine-7-carboxamide]: the 50% effective concentration (EC50) in the series on HBV (setting [1]) turned out to be 14.7 nM. Also, the kinetic solubility in “Kinetic Solubility” (setting [2]) was 2.9 µM (≈ 1.32 µg/mL); in “Kinetic Solubility” (setting [3]) it was 4.9 µM (≈ 2.23 µg/mL).

For `CNC(=O)C1(NC(=O)C(=O)c2c(C)c(C(=O)Nc3ccc(F)c(C(F)F)c3)c3n2CCC3)CC(F)(F)C1` [Example 41], the EC50 with HBV (setting [1]) came out at 20.8 nM. Besides, the solubility (kinetic) in the series “Kinetic Solubility” (setting [2]) and in the series “Kinetic Solubility” (setting [3]) was more than 100 µM in each case.

`CNC(=O)C1(NC(=O)C(=O)c2c(C)c(C(=O)Nc3cc(F)c(F)c(F)c3)c3n2CCC3)CC(F)(F)C1` [Example 42, 5-(2-((3,3-difluoro-1-(methylcarbamoyl)cyclobutyl)amino)-2-oxoacetyl)-6-methyl-N-(3,4,5-trifluorophenyl)-2,3-dihydro-1H-pyrrolizine-7-carboxamide]: the EC50 in the series on HBV (setting [1]) came to 12.7 nM. The figures for the solubility (kinetic) in “Kinetic Solubility” (setting [2]) and in “Kinetic Solubility” (setting [3]) were 29.6 µM (≈ 15.2 µg/mL) and 37.5 µM (≈ 19.2 µg/mL), respectively.

Turning to `Cc1c(C(=O)Nc2ccc(F)c(F)c2)c2n(c1C(=O)C(=O)NC1(c3nncs3)CC1)CCC2` [Example 43, 5-(2-((1-(1,3,4-thiadiazol-2-yl)cyclopropyl)amino)-2-oxoacetyl)-N-(3,4-difluorophenyl)-6-methyl-2,3-dihydro-1H-pyrrolizine-7-carboxamide], in the series with HBV (setting [1]), the EC50 turned out to be 12.8 nM. The kinetic solubility in “Kinetic Solubility” (setting [2]) was 72.8 µM (≈ 34.3 µg/mL); in the series “Kinetic Solubility” (setting [3]), 77.7 µM (≈ 36.6 µg/mL).

For the molecule `Cc1c(C(=O)Nc2ccc(F)c(F)c2)c2n(c1C(=O)C(=O)NC1(C(N)=O)CC(F)(F)C1)CCC2` [Example 44, 5-(2-((1-carbamoyl-3,3-difluorocyclobutyl)amino)-2-oxoacetyl)-N-(3,4-difluorophenyl)-6-methyl-2,3-dihydro-1H-pyrrolizine-7-carboxamide], in the series with HBV (setting [1]), the EC50 was 15.2 nM. The kinetic solubility in the series “Kinetic Solubility” (setting [2]) was 49.8 µM (≈ 23.9 µg/mL); in “Kinetic Solubility” (setting [3]), 90.3 µM (≈ 43.4 µg/mL).

As for `CNC(=O)C1(NC(=O)C(=O)c2c(C)c(C(=O)Nc3ccc(F)cc3)c3n2CCC3)CC(F)(F)C1` [Example 45, 5-(2-((3,3-difluoro-1-(methylcarbamoyl)cyclobutyl)amino)-2-oxoacetyl)-N-(4-fluorophenyl)-6-methyl-2,3-dihydro-1H-pyrrolizine-7-carboxamide], in the series on HBV (setting [1]), the EC50 stood at 55.9 nM. Further, the kinetic solubility in “Kinetic Solubility” (setting [2]) was 95.3 µM (≈ 45.4 µg/mL); in the series “Kinetic Solubility” (setting [3]), 99.9 µM (≈ 47.6 µg/mL).

`CNC(=O)C1(NC(=O)C(=O)c2c(C)c(C(=O)Nc3ccc(F)c(F)c3)c3n2CCC3)CC(F)(F)C1` [Example 46]: the concentration for a half-maximal effect (EC50) in the series with HBV (setting [1]) worked out at 22.5 nM. The kinetic solubility is 88.5 µM (≈ 43.8 µg/mL) in the series “Kinetic Solubility” (setting [2]) and 84.4 µM (≈ 41.7 µg/mL) in “Kinetic Solubility” (setting [3]).

(Values after patent US10836769B2, “Substituted pyrrolizine compounds and uses thereof” (Gilead Sciences, Inc., priority 2018, dated 2020).)
